## CCN(CC)C(=S)SSC(=S)N(CC)CC
In THF, 273.15 K
  solubility (mole fraction): 0.0618
In THF, 278.15 K
  solubility (mole fraction): 0.0719
In THF, 283.15 K
  solubility (mole fraction): 0.0825
In THF, 288.15 K
  solubility (mole fraction): 0.0942
In THF, 293.15 K
  solubility (mole fraction): 0.111
In THF, 298.15 K
  solubility (mole fraction): 0.131
In THF, 303.15 K
  solubility (mole fraction): 0.152
In THF, 308.15 K
  solubility (mole fraction): 0.173
In THF, 313.15 K
  solubility (mole fraction): 0.198
In THF, 318.15 K
  solubility (mole fraction): 0.228
In acetonitrile, 273.15 K
  solubility (mole fraction): 0.0134
In acetonitrile, 278.15 K
  solubility (mole fraction): 0.0174
In acetonitrile, 283.15 K
  solubility (mole fraction): 0.024
In acetonitrile, 288.15 K
  solubility (mole fraction): 0.0313
In acetonitrile, 293.15 K
  solubility (mole fraction): 0.041
In acetonitrile, 298.15 K
  solubility (mole fraction): 0.0558
In acetonitrile, 303.15 K
  solubility (mole fraction): 0.0793
In acetonitrile, 308.15 K
  solubility (mole fraction): 0.108
In acetonitrile, 313.15 K
  solubility (mole fraction): 0.141
In acetonitrile, 318.15 K
  solubility (mole fraction): 0.184
In dichloromethane, 273.15 K
  solubility (mole fraction): 0.11
In dichloromethane, 278.15 K
  solubility (mole fraction): 0.118
In dichloromethane, 283.15 K
  solubility (mole fraction): 0.13
In dichloromethane, 288.15 K
  solubility (mole fraction): 0.143
In dichloromethane, 293.15 K
  solubility (mole fraction): 0.159
In dichloromethane, 298.15 K
  solubility (mole fraction): 0.175
In dichloromethane, 303.15 K
  solubility (mole fraction): 0.202
In dichloromethane, 308.15 K
  solubility (mole fraction): 0.229
In dichloromethane, 313.15 K
  solubility (mole fraction): 0.263
In ethanol, 273.15 K
  solubility (mole fraction): 0.000903
In ethanol, 278.15 K
  solubility (mole fraction): 0.00111
In ethanol, 283.15 K
  solubility (mole fraction): 0.00143
In ethanol, 288.15 K
  solubility (mole fraction): 0.00192
In ethanol, 293.15 K
  solubility (mole fraction): 0.00266
In ethanol, 298.15 K
  solubility (mole fraction): 0.00339
In ethanol, 303.15 K
  solubility (mole fraction): 0.00466
In ethanol, 308.15 K
  solubility (mole fraction): 0.0063
In ethanol, 313.15 K
  solubility (mole fraction): 0.00911
In ethanol, 318.15 K
  solubility (mole fraction): 0.0131
In ethyl acetate, 273.15 K
  solubility (mole fraction): 0.00709
In ethyl acetate, 278.15 K
  solubility (mole fraction): 0.0101
In ethyl acetate, 283.15 K
  solubility (mole fraction): 0.0143
In ethyl acetate, 288.15 K
  solubility (mole fraction): 0.0201
In ethyl acetate, 293.15 K
  solubility (mole fraction): 0.0275
In ethyl acetate, 298.15 K
  solubility (mole fraction): 0.0405
In ethyl acetate, 303.15 K
  solubility (mole fraction): 0.0571
In ethyl acetate, 308.15 K
  solubility (mole fraction): 0.0809
In ethyl acetate, 313.15 K
  solubility (mole fraction): 0.107
In ethyl acetate, 318.15 K
  solubility (mole fraction): 0.143
In isobutanol, 273.15 K
  solubility (mole fraction): 0.00101
In isobutanol, 278.15 K
  solubility (mole fraction): 0.00119
In isobutanol, 283.15 K
  solubility (mole fraction): 0.00146
In isobutanol, 288.15 K
  solubility (mole fraction): 0.00198
In isobutanol, 293.15 K
  solubility (mole fraction): 0.00263
In isobutanol, 298.15 K
  solubility (mole fraction): 0.0035
In isobutanol, 303.15 K
  solubility (mole fraction): 0.0052
In isobutanol, 308.15 K
  solubility (mole fraction): 0.00779
In isobutanol, 313.15 K
  solubility (mole fraction): 0.011
In isobutanol, 318.15 K
  solubility (mole fraction): 0.0152
In isopropanol, 273.15 K
  solubility (mole fraction): 0.000564
In isopropanol, 278.15 K
  solubility (mole fraction): 0.000733
In isopropanol, 283.15 K
  solubility (mole fraction): 0.000981
In isopropanol, 288.15 K
  solubility (mole fraction): 0.00133
In isopropanol, 293.15 K
  solubility (mole fraction): 0.0018
In isopropanol, 298.15 K
  solubility (mole fraction): 0.0026
In isopropanol, 303.15 K
  solubility (mole fraction): 0.00346
In isopropanol, 308.15 K
  solubility (mole fraction): 0.0047
In isopropanol, 313.15 K
  solubility (mole fraction): 0.00651
In isopropanol, 318.15 K
  solubility (mole fraction): 0.00964
In methanol, 273.15 K
  solubility (mole fraction): 0.000896
In methanol, 278.15 K
  solubility (mole fraction): 0.00105
In methanol, 283.15 K
  solubility (mole fraction): 0.00134
In methanol, 288.15 K
  solubility (mole fraction): 0.00172
In methanol, 293.15 K
  solubility (mole fraction): 0.00235
In methanol, 298.15 K
  solubility (mole fraction): 0.00323
In methanol, 303.15 K
  solubility (mole fraction): 0.0042
In methanol, 308.15 K
  solubility (mole fraction): 0.00541
In methanol, 313.15 K
  solubility (mole fraction): 0.00736
In methanol, 318.15 K
  solubility (mole fraction): 0.0106
In n-butanol, 273.15 K
  solubility (mole fraction): 0.00109
In n-butanol, 278.15 K
  solubility (mole fraction): 0.00155
In n-butanol, 283.15 K
  solubility (mole fraction): 0.00216
In n-butanol, 288.15 K
  solubility (mole fraction): 0.0028
In n-butanol, 293.15 K
  solubility (mole fraction): 0.00375
In n-butanol, 298.15 K
  solubility (mole fraction): 0.00518
In n-butanol, 303.15 K
  solubility (mole fraction): 0.00715
In n-butanol, 308.15 K
  solubility (mole fraction): 0.0104
In n-butanol, 313.15 K
  solubility (mole fraction): 0.0151
In n-butanol, 318.15 K
  solubility (mole fraction): 0.0208
In n-propanol, 273.15 K
  solubility (mole fraction): 0.00101
In n-propanol, 278.15 K
  solubility (mole fraction): 0.00127
In n-propanol, 283.15 K
  solubility (mole fraction): 0.00167
In n-propanol, 288.15 K
  solubility (mole fraction): 0.00229
In n-propanol, 293.15 K
  solubility (mole fraction): 0.00301
In n-propanol, 298.15 K
  solubility (mole fraction): 0.00423
In n-propanol, 303.15 K
  solubility (mole fraction): 0.00571
In n-propanol, 308.15 K
  solubility (mole fraction): 0.00797
In n-propanol, 313.15 K
  solubility (mole fraction): 0.0106
In n-propanol, 318.15 K
  solubility (mole fraction): 0.0155

Source: BigSolDB 2.1
